Results as given in the supplement of paper PMC10627819.

How the values were obtained:
B. subtilis 168 [1] = assay: fitness (endpoint OD595 vs no drug) (fraction); higher = more growth
In short: (§1)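 With the first reading as background, OD595 was measured every 30 min for 14 h in 384-well plates kept at 37 °C and inoculated at OD595 0.01. TSB, LB Lennox or CY was the medium. Fitness is the optical density at the transition into stationary phase divided by the robust mean of no-drug control wells, with a cap of 1.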

S. aureus Newman [2] = assay: as above
In short: as §1

S. pneumoniae D39V [3] = assay: as above
In short: as §1

B. subtilis 168 [4] = assay: Bliss interaction score (quartile over a dose matrix) (fitness difference); higher = more antagonism (negative = synergy)
In short: (§2)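 Values were capped at 1 after dividing OD595 at stationary-phase entry by the plate's robust no-drug mean. This ratio is fitness, and single-drug fitness was inferred from the combination data. The Bliss score is observed minus product-expected fitness, given as quartiles over technical, biological and donor/recipient replicates.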

S. aureus DSM 20231 = assay: as above
In short: as §2

S. aureus Newman [5] = assay: as above
In short: as §2

S. pneumoniae D39V [6] = assay: as above
In short: as §2
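For Bliss interaction score (quartile over a dose matrix) in this document: first quartile when negative (synergy) and third quartile when positive (antagonism).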

CC1=C(C(=O)O)N2C(=O)[C@@H](NC(=O)[C@H](N)c3ccccc3)[C@H]2SC1 [Cephalexin] + CN[C@@H]1[C@H](O[C@H]2[C@H](O[C@H]3[C@H](O)[C@@H](O)[C@H](N=C(N)N)[C@@H](O)[C@@H]3N=C(N)N)O[C@@H](C)[C@]2(O)C=O)O[C@@H](CO)[C@H](O)[C@H]1O [Streptomycin]
fitness
Conditions | first compound 0.125 µg/mL | first compound 0.25 µg/mL | first compound 0.5 µg/mL | first compound 1 µg/mL | first compound 2 µg/mL | first compound 4 µg/mL
B. subtilis 168 [1], partner 2 µg/mL | 0.94 | 0.923 | 0.932 | – | – | –
B. subtilis 168 [1], partner 8 µg/mL | 0.031 | 0.0416 | 0.0533 | – | – | –
S. aureus Newman [2], partner 1 µg/mL | – | 0.944 | 0.967 | 0.987 | – | –
S. aureus Newman [2], partner 2 µg/mL | – | 0.976 | ≥ 1 | ≥ 1 | – | –
S. pneumoniae D39V [3], partner 4 µg/mL | – | – | – | 0.454 | 0.0189 | 0.0459
S. pneumoniae D39V [3], partner 8 µg/mL | – | – | – | 0.408 | 0.0381 | 0.0337

fitness, S. pneumoniae D39V [3], one replicate
Conditions | first compound 0.125 µg/mL | first compound 0.25 µg/mL | first compound 0.5 µg/mL | first compound 1 µg/mL | first compound 2 µg/mL | first compound 4 µg/mL
partner 2 µg/mL | 0.86 | 0.913 | 0.953 | 0.386 | 0.0034 | 0.0206
partner 4 µg/mL | 0.901 | 0.91 | 0.911 | – | – | –
partner 8 µg/mL | 0.961 | 0.898 | 0.896 | – | – | –
partner 16 µg/mL | – | – | – | 0.198 | 0.0581 | 0.0194

Conditions | Bliss interaction score
B. subtilis 168 [4] | 0.0604
S. aureus DSM 20231 | -0.157
S. aureus Newman [5] | 0.0561
S. pneumoniae D39V [6] | -0.153

CC1=C(C(=O)O)N2C(=O)[C@@H](NC(=O)[C@H](N)c3ccccc3)[C@H]2SC1 [Cephalexin] + COc1c(N2C[C@@H]3CCCN[C@@H]3C2)c(F)cc2c(=O)c(C(=O)O)cn(C3CC3)c12 [Moxifloxacin]
Conditions | fitness
B. subtilis 168 [1], first compound 0.125 µg/mL, partner 2 µg/mL | 0.0423
B. subtilis 168 [1], first compound 0.125 µg/mL, partner 4 µg/mL | 0.0453
B. subtilis 168 [1], first compound 0.125 µg/mL, partner 8 µg/mL | 0.0194
B. subtilis 168 [1], first compound 0.25 µg/mL, partner 0.0312 µg/mL | 0.0487
B. subtilis 168 [1], first compound 0.25 µg/mL, partner 0.0625 µg/mL | 0.0549
B. subtilis 168 [1], first compound 0.25 µg/mL, partner 0.125 µg/mL | 0.0364
B. subtilis 168 [1], first compound 0.25 µg/mL, partner 2 µg/mL | 0.0473
B. subtilis 168 [1], first compound 0.25 µg/mL, partner 4 µg/mL | 0.0392
B. subtilis 168 [1], first compound 0.25 µg/mL, partner 8 µg/mL | 0.027
B. subtilis 168 [1], first compound 0.5 µg/mL, partner 0.0312 µg/mL | 0.0585
B. subtilis 168 [1], first compound 0.5 µg/mL, partner 0.0625 µg/mL | 0.0464
B. subtilis 168 [1], first compound 0.5 µg/mL, partner 0.125 µg/mL | 0.0607
B. subtilis 168 [1], first compound 0.5 µg/mL, partner 2 µg/mL | 0.0441
B. subtilis 168 [1], first compound 0.5 µg/mL, partner 4 µg/mL | 0.0483
B. subtilis 168 [1], first compound 0.5 µg/mL, partner 8 µg/mL | 0.0385
B. subtilis 168 [1], first compound 1 µg/mL, partner 0.0312 µg/mL | 0.0562
B. subtilis 168 [1], first compound 1 µg/mL, partner 0.0625 µg/mL | 0.0588
B. subtilis 168 [1], first compound 1 µg/mL, partner 0.125 µg/mL | 0.0618
S. aureus Newman [2], first compound 0.25 µg/mL, partner 0.0075 µg/mL | 0.788
S. aureus Newman [2], first compound 0.5 µg/mL, partner 0.0075 µg/mL | 0.812
S. aureus Newman [2], first compound 0.5 µg/mL, partner 0.015 µg/mL | 0.691
S. aureus Newman [2], first compound 1 µg/mL, partner 0.0075 µg/mL | 0.807
S. pneumoniae D39V [3], first compound 4 µg/mL, partner 0.005 µg/mL | 0.0502
S. pneumoniae D39V [3], first compound 4 µg/mL, partner 0.01 µg/mL | 0.059
S. pneumoniae D39V [3], first compound 4 µg/mL, partner 0.02 µg/mL | 0.0505

fitness, S. pneumoniae D39V [3], one replicate
Conditions | first compound 0.125 µg/mL | first compound 0.25 µg/mL | first compound 0.5 µg/mL
partner 0.0037 µg/mL | 0.856 | 0.855 | 0.836
partner 0.0075 µg/mL | 0.948 | 0.843 | 0.819
partner 0.015 µg/mL | 0.839 | 0.813 | 0.808

Conditions | Bliss interaction score
B. subtilis 168 [4] | 0.0149
S. aureus DSM 20231 | -0.0585
S. aureus Newman [5] | 0.07
S. pneumoniae D39V [6] | -0.0683

CC1=C(C(=O)O)N2C(=O)[C@@H](NC(=O)[C@H](N)c3ccccc3)[C@H]2SC1 [Cephalexin] + COc1ccc(C[C@H](N)C(=O)N[C@H]2[C@@H](O)[C@H](n3cnc4c(N(C)C)ncnc43)O[C@@H]2CO)cc1 [Puromycin]
fitness
Conditions | first compound 0.125 µg/mL | first compound 0.25 µg/mL | first compound 0.5 µg/mL | first compound 1 µg/mL
B. subtilis 168 [1], partner 0.39 µg/mL | 0.944 | 0.912 | 0.869 | –
B. subtilis 168 [1], partner 0.78 µg/mL | 0.952 | 0.891 | 0.935 | –
B. subtilis 168 [1], partner 1.56 µg/mL | 0.921 | 0.888 | 0.938 | –
S. aureus Newman [2], partner 0.39 µg/mL | – | 0.991 | ≥ 1 | 0.99
S. aureus Newman [2], partner 0.78 µg/mL | – | ≥ 1 | ≥ 1 | ≥ 1
S. aureus Newman [2], partner 1.56 µg/mL | – | ≥ 1 | 0.976 | 0.991

fitness, S. pneumoniae D39V [3], one replicate
Conditions | first compound 0.125 µg/mL | first compound 0.25 µg/mL | first compound 0.5 µg/mL | first compound 1 µg/mL | first compound 2 µg/mL | first compound 4 µg/mL
partner 1 µg/mL | ≥ 1 | ≥ 1 | ≥ 1 | 0.158 | 0.0772 | 0.0589
partner 2 µg/mL | 0.939 | 0.926 | ≥ 1 | 0.3 | 0.0861 | 0.055
partner 4 µg/mL | 0.798 | 0.883 | 0.893 | 0.0824 | 0.0686 | 0.047

Conditions | Bliss interaction score
B. subtilis 168 [4] | 0.0628
S. aureus DSM 20231 | 0.0696
S. aureus Newman [5] | 0.043
S. pneumoniae D39V [6] | -0.101
